Drawing on ChEMBL document CHEMBL4673207, “Recent advances in the discovery of potent and selective HDAC6 inhibitors” (Eur J Med Chem, 2018), this text covers Ratio IC50, IC50 and GI50 for one molecule.

One test deals with HEK293T. Kind of test: Selectivity ratio of IC50 for Flag-tagged HDAC1 (unknown origin) expressed in 293T cells to IC50 for Flag-tagged HDAC6 (unknown origin) expressed in 293T cells. It is filed as cell-based. The note with it: Homo sapiens.
The target of test [1] is T1, Protein deacetylase HDAC6 (Homo sapiens, UniProt Q9UBN7).
T1 sequence (Q9UBN7 whole entry): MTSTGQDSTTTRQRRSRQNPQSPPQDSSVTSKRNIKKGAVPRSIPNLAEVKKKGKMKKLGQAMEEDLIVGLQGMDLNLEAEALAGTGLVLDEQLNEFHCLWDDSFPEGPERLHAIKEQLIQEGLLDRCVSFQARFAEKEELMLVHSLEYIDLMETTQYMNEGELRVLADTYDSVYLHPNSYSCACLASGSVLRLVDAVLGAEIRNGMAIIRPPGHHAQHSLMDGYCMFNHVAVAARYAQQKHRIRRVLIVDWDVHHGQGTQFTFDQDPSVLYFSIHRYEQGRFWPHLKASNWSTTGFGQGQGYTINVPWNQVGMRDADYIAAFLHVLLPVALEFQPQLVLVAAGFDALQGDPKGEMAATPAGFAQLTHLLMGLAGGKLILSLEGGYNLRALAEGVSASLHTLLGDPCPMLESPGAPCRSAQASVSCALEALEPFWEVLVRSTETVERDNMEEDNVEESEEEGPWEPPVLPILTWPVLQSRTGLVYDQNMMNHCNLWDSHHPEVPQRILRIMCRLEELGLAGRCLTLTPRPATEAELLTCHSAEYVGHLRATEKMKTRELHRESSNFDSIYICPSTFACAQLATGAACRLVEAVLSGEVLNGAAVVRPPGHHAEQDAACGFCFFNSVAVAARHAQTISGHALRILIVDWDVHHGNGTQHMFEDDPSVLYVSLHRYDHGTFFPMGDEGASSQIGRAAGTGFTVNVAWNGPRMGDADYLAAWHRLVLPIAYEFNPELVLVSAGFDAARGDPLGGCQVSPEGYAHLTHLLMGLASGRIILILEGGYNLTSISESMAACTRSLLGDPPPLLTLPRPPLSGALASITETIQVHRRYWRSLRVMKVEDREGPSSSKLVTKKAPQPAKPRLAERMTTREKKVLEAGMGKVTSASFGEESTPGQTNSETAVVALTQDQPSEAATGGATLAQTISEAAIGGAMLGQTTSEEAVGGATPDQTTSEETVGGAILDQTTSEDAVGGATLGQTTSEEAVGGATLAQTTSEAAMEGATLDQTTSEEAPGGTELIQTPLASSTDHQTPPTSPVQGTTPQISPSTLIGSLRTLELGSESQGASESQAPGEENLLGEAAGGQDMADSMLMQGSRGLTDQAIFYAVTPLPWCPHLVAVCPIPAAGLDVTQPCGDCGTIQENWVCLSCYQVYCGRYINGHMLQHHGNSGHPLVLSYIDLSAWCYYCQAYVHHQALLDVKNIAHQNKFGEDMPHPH
Kind of test: Inhibition of Flag-tagged HDAC6 (unknown origin) expressed in 293T cells using ZMAL as substrate incubated for 180 mins by fluorescence method. Details: species or system HEK293T.

Another test has as its system MCF7. As to the kind of experiment: Antiproliferative activity against human MCF7 incubated for 72 hrs by MTT assay. It is filed as functional.
The target in another test is Histone deacetylase 1 (Homo sapiens, UniProt Q13547). As to the kind of experiment: Inhibition of Flag-tagged HDAC1 (unknown origin) expressed in 293T cells using ZMAL as substrate incubated for 180 mins by fluorescence method. Further details: species or system HEK293T.

As a reminder, the IC50 is the concentration that gives 50% inhibition. Read a high IC50 as a need for much substance. The term GI50 denotes the concentration that inhibits growth by half.

Histone deacetylase 1, sequence (Q13547 whole entry): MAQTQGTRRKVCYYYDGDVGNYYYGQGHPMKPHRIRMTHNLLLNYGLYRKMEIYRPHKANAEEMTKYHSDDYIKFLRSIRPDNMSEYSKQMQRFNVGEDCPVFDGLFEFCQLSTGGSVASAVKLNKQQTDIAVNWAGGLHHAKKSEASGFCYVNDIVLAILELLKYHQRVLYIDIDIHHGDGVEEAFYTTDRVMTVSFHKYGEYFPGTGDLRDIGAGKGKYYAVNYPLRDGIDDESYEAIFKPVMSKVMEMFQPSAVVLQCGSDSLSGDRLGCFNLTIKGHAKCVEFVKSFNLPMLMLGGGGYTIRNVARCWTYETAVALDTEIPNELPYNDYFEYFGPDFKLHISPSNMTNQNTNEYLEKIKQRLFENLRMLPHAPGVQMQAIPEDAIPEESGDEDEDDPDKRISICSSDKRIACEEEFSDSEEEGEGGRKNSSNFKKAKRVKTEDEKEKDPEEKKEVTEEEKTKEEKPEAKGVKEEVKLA

For the molecule `COC(=O)[C@H](Cc1ccccn1)NC(=O)CCCCCCC(=O)NO`, the Ratio IC50 in the test with HEK293T came out at 25. Besides, the IC50 was found to be 3.97 µM in test [1] and 100 µM on Histone deacetylase 1. Also, in the test with MCF7, the GI50 came to 104 µM.
